{"source": "paper PMC11061149", "about": "“Protein mimetic 2D FAST rescues alpha synuclein aggregation mediated early and post disease Parkinson’s phenotypes” (Nature Communications, 2024)", "target": "T1, αS PMCA samples (Homo sapiens, UniProt P37840)", "T1 construct": "made in house; host or cells: E. coli BL21(DE3)", "assay": "Proteinase K digestion of PMCA samples", "format": "biochemical", "conditions": "cycle three to cycle five, in the presence of NS132", "description": "A Protease K (PK) solution at 50 μg/mL (IBI Scientific, Dubuque, IA) in digestion buffer (10 mM Tris, pH 8.0, 2 mM CaCl2) was diluted (0.1 eq.) into 30 μL of PMCA solution (with or without NS132) and incubated for 30 min at 37 °C. Subsequently, the samples were diluted (1:1, v/v) in SDS Protein Gel Loading Dye 2× (Quality Biological, Gaithersburg, MD) and loaded on Mini-PROTEAN TGX Stain-Free Protein Gel (BioRad, Hercules, CA). The gel was stained using the Fairbanks staining method and imaged using ChemiDoc MP (BioRad, Hercules, CA).", "data": [{"smiles": "Cc1ccc(NC(=O)c2ccc(NC(=O)c3ccc([N+](=O)[O-])c(NCCc4c[nH]c5ccccc45)n3)c(NCC3CCCCC3)n2)c(OCC(=O)O)n1", "note": "[NS132]", "values": [{"measurement": "proteinase K (PK) resistance of PMCA samples, in words", "value": "completely degraded"}]}]}
